Where “and” joins values, the source holds several entries; their conditions need not be identical. Identical values can stand only once. Inconclusive results and toxic doses are left out. No stated cut-off is given here; in the data, active means T/C of 150% or more; inactive means T/C below 125%.
Test system: L1210 leukemia ip in BDF1 mice, survival T/C
Assay: NCI In Vivo Anticancer Drug Screen. Data for tumor model L1210 Leukemia (intraperitoneal) in B6D2F1 (BDF1) mice
Conditions: endpoint: mean survival time, higher = longer survival
Summary of the method: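 Each compound was tested against a transplantable tumor grown in mice. The endpoint was survival, with treated animals benchmarked against vehicle controls as a simple ratio.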

[1] = dose: 100.0 mg/kg/injection, schedule: Q01DX009 (ip), vehicle: Klucel (hydroxypropylcellulose) (HPC)
[2] = dose: 100.0 mg/kg/injection, schedule: Q01DX009 (ip), vehicle: saline with Tween-80
[3] = dose: 200.0 mg/kg/injection, schedule: Q01DX009 (ip), vehicle: saline with Tween-80
[4] = dose: 400.0 mg/kg/injection, schedule: Q01DX009 (ip), vehicle: saline with Tween-80
[5] = dose: 75.0 mg/kg/injection, schedule: Q01DX001 (ip), vehicle: saline
[6] = dose: 150.0 mg/kg/injection, schedule: Q01DX001 (ip), vehicle: saline
[7] = dose: 300.0 mg/kg/injection, schedule: Q01DX001 (ip), vehicle: saline
[8] = dose: 100.0 mg/kg/injection, schedule: Q04DX002 (ip), vehicle: saline with Tween-80
[9] = dose: 100.0 mg/kg/injection, schedule: Q04DX003 (ip), vehicle: Klucel (hydroxypropylcellulose) (HPC)
[10] = dose: 200.0 mg/kg/injection, schedule: Q04DX003 (ip), vehicle: Klucel (hydroxypropylcellulose) (HPC)
[11] = dose: 400.0 mg/kg/injection, schedule: Q04DX003 (ip), vehicle: Klucel (hydroxypropylcellulose) (HPC)
[12] = dose: 50.0 mg/kg/injection, schedule: Q01DX001 (ip), vehicle: saline
[13] = dose: 100.0 mg/kg/injection, schedule: Q01DX001 (ip), vehicle: saline
[14] = dose: 50.0 mg/kg/injection, schedule: Q01DX009 (ip), vehicle: saline with Tween-80
[15] = dose: 200.0 mg/kg/injection, schedule: Q01DX001 (ip), vehicle: saline
[16] = dose: 400.0 mg/kg/injection, schedule: Q01DX001 (ip), vehicle: saline
[17] = dose: 200.0 mg/kg/injection, schedule: Q01DX009 (ip), vehicle: Klucel (hydroxypropylcellulose) (HPC)
[18] = dose: 400.0 mg/kg/injection, schedule: Q01DX009 (ip), vehicle: Klucel (hydroxypropylcellulose) (HPC)
[19] = dose: 100.0 mg/kg/injection, schedule: Q04DX003 (ip), vehicle: saline with Tween-80
[20] = dose: 200.0 mg/kg/injection, schedule: Q04DX003 (ip), vehicle: saline with Tween-80

Measured: T/C

OCC1OC(n2cnc3c(Cl)ncnc32)C(O)C1O (centres undefined)
inactive: dose: 62.5 mg/kg/injection, schedule: Q01DX009 (ip), vehicle: saline 96 % of control | dose: 62.5 mg/kg/injection, schedule: Q01DX010 (ip), vehicle: saline 102 % of control | dose: 62.5 mg/kg/injection, schedule: Q01DX Z (ip), vehicle: carboxymethylcellulose (CMC) 102 % of control | [1] 102 % of control | dose: 125.0 mg/kg/injection, schedule: Q01DX009 (ip), vehicle: saline 93 % of control and 89 % of control | dose: 125.0 mg/kg/injection, schedule: Q01DX010 (ip), vehicle: saline 89 % of control and 92 % of control | dose: 125.0 mg/kg/injection, schedule: Q01DX Z (ip), vehicle: carboxymethylcellulose (CMC) 96 % of control | dose: 250.0 mg/kg/injection, schedule: Q01DX009 (ip), vehicle: saline 96 % of control and 91 % of control | dose: 250.0 mg/kg/injection, schedule: Q01DX010 (ip), vehicle: saline 100 % of control and 92 % of control | dose: 250.0 mg/kg/injection, schedule: Q01DX Z (ip), vehicle: carboxymethylcellulose (CMC) 110 % of control | dose: 300.0 mg/kg/injection, schedule: Q01DX009 (ip), vehicle: Klucel (hydroxypropylcellulose) (HPC) 101 % of control | dose: 440.0 mg/kg/injection, schedule: Q01DX001 (ip), vehicle: carboxymethylcellulose (CMC) 96 % of control | dose: 500.0 mg/kg/injection, schedule: Q01DX009 (ip), vehicle: Klucel (hydroxypropylcellulose) (HPC) 100 % of control | dose: 500.0 mg/kg/injection, schedule: Q01DX009 (ip), vehicle: saline 96 % of control and 98 % of control | dose: 500.0 mg/kg/injection, schedule: Q01DX010 (ip), vehicle: saline 97 % of control and 88 % of control | dose: 500.0 mg/kg/injection, schedule: Q01DX Z (ip), vehicle: carboxymethylcellulose (CMC) 94 % of control | dose: 670.0 mg/kg/injection, schedule: Q01DX001 (ip), vehicle: carboxymethylcellulose (CMC) 95 % of control | dose: 1000.0 mg/kg/injection, schedule: Q01DX001 (ip), vehicle: carboxymethylcellulose (CMC) 95 % of control | dose: 1000.0 mg/kg/injection, schedule: Q01DX009 (ip), vehicle: Klucel (hydroxypropylcellulose) (HPC) 106 % of control | dose: 1500.0 mg/kg/injection, schedule: Q01DX001 (ip), vehicle: carboxymethylcellulose (CMC) 90 % of control | dose: 2250.0 mg/kg/injection, schedule: Q01DX001 (ip), vehicle: carboxymethylcellulose (CMC) 97 % of control

CCCn1c2c(c(=O)n(CC)c1=O)S(=O)C(OCC)C(=O)N2 (centres undefined)
inactive: dose: 78.0 mg/kg/injection, schedule: Q01DX Z (ip), vehicle: other 92 % of control | dose: 116.0 mg/kg/injection, schedule: Q01DX Z (ip), vehicle: other 97 % of control and 104 % of control | dose: 175.0 mg/kg/injection, schedule: Q01DX Z (ip), vehicle: other 98 % of control and 87 % of control | dose: 262.5 mg/kg/injection, schedule: Q01DX Z (ip), vehicle: other 93 % of control and 103 % of control

O=C(Nc1cccc(F)c1)Nc1ncccn1
inactive: [2] 90 % of control | [3] 86 % of control | [4] 100 % of control

COc1cccc(N=C(N)N=C(N)N)c1
inactive: [5] 101 % of control | [6] 101 % of control | [7] 107 % of control

CCOC(=O)CCCCSCCCCC(=O)OCC
inactive: [2] 91 % of control | [3] 101 % of control | [4] 102 % of control

[O]=[Sb]([OH])([OH])[c]1ccccc1
inactive: dose: 12.5 mg/kg/injection, schedule: Q04DX002 (ip), vehicle: saline with Tween-80 100 % of control | dose: 25.0 mg/kg/injection, schedule: Q04DX002 (ip), vehicle: saline with Tween-80 100 % of control | dose: 50.0 mg/kg/injection, schedule: Q01DX009 (sc), vehicle: olive oil, sesame oil, peanut oil 97 % of control | dose: 50.0 mg/kg/injection, schedule: Q04DX002 (ip), vehicle: saline with Tween-80 103 % of control | dose: 100.0 mg/kg/injection, schedule: Q01DX009 (sc), vehicle: olive oil, sesame oil, peanut oil 95 % of control | [8] 90 % of control | dose: 100.0 mg/kg/injection, schedule: Q04DX003 (sc), vehicle: olive oil, sesame oil, peanut oil 97 % of control | dose: 200.0 mg/kg/injection, schedule: Q04DX003 (sc), vehicle: olive oil, sesame oil, peanut oil 93 % of control

c1ccc2c3c([nH]c2c1)C1CC2CCCCC2CN1CC3 (centres undefined)
inactive: [5] 107 % of control | [6] 109 % of control

Cc1nc2ccc(N=Cc3ccc(N(CCCl)CCCl)cc3)cc2[nH]1
inactive: [9] 102 % of control | [10] 98 % of control | [11] 104 % of control

O=C(NCCN1CCCCC1)C(O)(c1ccccc1)C1CCCCC1 (centres undefined)
inactive: dose: 75.0 mg/kg/injection, schedule: Q01DX001 (ip), vehicle: other 97 % of control | dose: 150.0 mg/kg/injection, schedule: Q01DX001 (ip), vehicle: other 100 % of control

CCCCCC(=O)NNC(=O)CCCCC
inactive: [5] 91 % of control | [6] 91 % of control | [7] 94 % of control

CC1=CC(=O)C=CC1=Nc1cc(Cl)c(O)c(Cl)c1
inactive: [12] 101 % of control | [13] 95 % of control

Brc1cscc1-c1c2ccccc2cc2ccccc12
inactive: [14] 106 % of control | [2] 98 % of control | [3] 98 % of control

COC12C(CC3C4CC=C5CC(OC(C)=O)CCC5(C)C4CCC31C)C(c1ccccc1)=NN2c1ccccc1 (centres undefined)
inactive: dose: 12.5 mg/kg/injection, schedule: Q04DX002 (ip), vehicle: Klucel (hydroxypropylcellulose) (HPC) 101 % of control | dose: 25.0 mg/kg/injection, schedule: Q04DX002 (ip), vehicle: Klucel (hydroxypropylcellulose) (HPC) 104 % of control | dose: 50.0 mg/kg/injection, schedule: Q04DX002 (ip), vehicle: Klucel (hydroxypropylcellulose) (HPC) 101 % of control

O=[N+]([O-])/C=C/c1ccc([N+](=O)[O-])cc1Cl
inactive: dose: 12.5 mg/kg/injection, schedule: Q01DX009 (ip), vehicle: saline 101 % of control | dose: 25.0 mg/kg/injection, schedule: Q01DX009 (ip), vehicle: saline 103 % of control | [12] 100 % of control | dose: 50.0 mg/kg/injection, schedule: Q01DX009 (ip), vehicle: saline 108 % of control | dose: 50.0 mg/kg/injection, schedule: Q04DX003 (ip), vehicle: saline with Tween-80 119 % of control | [13] 93 % of control | [15] 102 % of control

C=NCC#N
inactive: [2] 91 % of control | [3] 91 % of control | [4] 93 % of control

Cc1ccc(S(=O)(=O)N2/C(=C/c3ccccc3)C(=O)c3ccccc3-c3ccccc32)cc1
inactive: [13] 96 % of control | [15] 91 % of control | [16] 90 % of control

O=C(Nc1ccc(O)cc1)c1ccc([N+](=O)[O-])cc1
inactive: [1] 94 % of control | [17] 95 % of control | [18] 100 % of control

C=C(N1CCCCC1)N1CCCCC1
inactive: [8] 100 % of control | dose: 200.0 mg/kg/injection, schedule: Q04DX002 (ip), vehicle: saline with Tween-80 96 % of control | dose: 400.0 mg/kg/injection, schedule: Q04DX002 (ip), vehicle: saline with Tween-80 116 % of control

S=P(N1CCCCC1)(N1CCCCC1)N1CCCCC1
inactive: [1] 100 % of control | [17] 103 % of control | [18] 100 % of control

CCOCCN=Cc1c[nH]c2ccccc12
inactive: [9] 98 % of control | [10] 95 % of control | [11] 98 % of control

Cc1nnc2c([N+](=O)[O-])cccn12
inactive: [13] 98 % of control | [15] 103 % of control

Nc1ccc(Nc2cc(S(=O)(=O)O)c(N)c3c2C(=O)c2ccccc2C3=O)cc1
inactive: [13] 97 % of control | [16] 93 % of control

O=C(O)c1cc(-c2cccc(C(F)(F)F)c2)nc2c(C(F)(F)F)cccc12
inactive: [14] 96 % of control | [2] 96 % of control | [19] 101 % of control | [20] 105 % of control

Brc1ccc(-c2nc3ccccc3[nH]2)cc1
inactive: [2] 93 % of control | [19] 101 % of control | [3] 93 % of control | [20] 104 % of control | [4] 93 % of control | dose: 400.0 mg/kg/injection, schedule: Q04DX003 (ip), vehicle: saline with Tween-80 101 % of control

Reference: PubChem BioAssay AID248 (DTP/NCI, 2004)
